Assay results taken from patent US11384078B2, “5,6-fused-bicyclic compounds and compositions for the treatment of parasitic diseases” (NOVARTIS AG, priority 2017, dated 2022).
pEC50: −log10 of the molar value. Like-named read-outs stand apart in the source and are kept apart here.

Experiments:
Type in all cases: cell-based
[1] = test system: L. donovani HU3 strain in mouse peritoneal macrophages; assay: Assay for inhibition of parasitemia of Leishmania donovani in mouse macrophages (SYBR Green nuclei count, high-content imaging); details: L. donovani in mouse peritoneal macrophages, read-out: L. donovani in Mouse Macrophages EC50
Summary of the method: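 Parasite numbers were counted from SYBR Green-stained nuclei imaged by high-content microscopy after paraformaldehyde fixation and Triton permeabilization. Before this, compound was applied for 5 days at 37° C to BALB/c peritoneal macrophages (2×10^4/well) that had been exposed 24 h to 4×10^5 L. donovani HU3 amastigotes harvested from infected mouse spleens.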

[2] = test system: Leishmania donovani axenic amastigote; assay: In vitro assay for growth inhibition of Leishmania donovani axenic amastigote (Cell TiterGlo luminescence); details: Leishmania donovani, L. donovani axenic amastigotes in vitro; read-out: L. donovani amastigotes EC50
Summary of the method: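 Compound-treated wells received 9600 axenic amastigotes in RPMI 1640-based medium at pH 5.5 (37 °C, 5% CO2). Growth measured as ATP luminescence (CellTiter-Glo) after 2-day incubation; DMSO and reference compounds served as controls.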

[3] = test system: Trypanosoma cruzi amastigotes cultured in 3T3 fibroblast cells; assay: Assay for growth inhibition of kinetoplastid parasite Trypanosoma cruzi (beta-galactosidase Tulahuen strain, CPRG readout); details: Trypanosoma cruzi, Fibroblast, T. cruzi amastigotes in 3T3 fibroblast cells; read-out: Buckner infectious T. cruzi EC50
Summary of the method: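 3T3 fibroblasts (1,000 cells/well) plated overnight, treated with compound in DMSO, then infected with 10,000 Lac-Z-expressing Tulahuen trypomastigotes. After 6 days, 0.6 mM CPRG with 0.6% NP-40 added for 2 h at room temperature; absorbance gives relative intracellular amastigote numbers. Benznidazole and nifurtimox serve as positive controls.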

[4] = test system: Trypanosoma brucei brucei (Lister 427) strain; assay: Assay for growth inhibition against Trypanosoma brucei brucei (Cell TiterGlo ATP luminescence); details: T. brucei brucei (Lister 427), read-out: T. Brucei (HAT) EC50
Summary of the method: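 Growth read-out is cellular ATP by CellTiter-Glo luminescence, measured 30 min after reagent addition, following 2-day incubation at 37 °C in CO2. Parasites (10,000/mL, HMI-9 plus 10% FBS and 10% serum plus) faced 10 threefold dilutions in duplicate; IC50 taken as 50% growth inhibition versus untreated.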

[5] = Leishmania donovani, Peritoneal macrophage

SMILES	pEC50 [1, 5]	pEC50 [2]	pEC50 [3]	pEC50 ([4]; Trypanosoma brucei)	pEC50 [1]	pEC50 [4]
Cc1nc(C)c(C(=O)Nc2ccc(F)c(-n3cc4cc(NC(=O)OC(C)C)cnc4n3)c2)o1 [Compound 159, propan-2-yl N-{2-[5-(dimethyl-1,3-oxazole-5-amido)-2-fluorophenyl}-2H-pyrazolo[3,4-b]pyridin-5-yl}carbamate]	7.77	7.89	7.43	> 7.64		
O=C(Nc1ccc(F)c(-n2cc3cc(-c4ccccn4)cnc3n2)c1)[C@H]1C[C@@H]1F (single isomer, unassigned) [Compound 269, (1 S,2R)-2-fluoro-N-(4-fluoro-3-(5-(pyridin-2-yl)-2H-pyrazolo[3,4-b]pyridin-2-yl)phenyl)cyclopropane-1-carboxamide or (1R,2S)-2-fluoro-N-(4-fluoro-3-(5-(pyridin-2-yl)-2H-pyrazolo[3,4-b]pyridin-2-yl)phenyl)cyclopropane-1-carboxamide]		7.72	8.05		7.49	7.70
O=C(Nc1ccc(F)c(-n2cc3cc(N4CCOCC4)cnc3n2)c1)N1CC(F)C1 [Compound 132, 3-fluoro-N-{4-fluoro-3-[5-(morpholin-4-yl)-2H-pyrazolo[3,4-b]pyridin-2-yl]phenyl}azetidine-1-carboxamide]	8.15	7.96	7.89	> 7.64		
Cc1nc(CO)c(C(=O)Nc2ccc(F)c(-n3cc4cc(-c5ncccc5C)cnc4n3)c2)o1 [Compound 277, N-(4-fluoro-3-(5-(3-methylpyridin-2-yl)-2H-pyrazolo[3,4-b]pyridin-2-yl)phenyl)-4-(hydroxymethyl)-2-methyloxazole-5-carboxamide]	6.86	7.40	6.84	7.09		
Cc1nc(C)c(C(=O)Nc2ccc(F)c(-n3cc4cc(CC(F)(F)F)cnc4n3)c2)o1 [Compound 175, N-{4-fluoro-3-[5-(2,2,2-trifluoroethyl)-2H-pyrazolo[3,4-b]pyridin-2-yl]phenyl}-2,4-dimethyl-1,3-oxazole-5-carboxamide]	8.09	7.62	8.31	> 7.64		
O=C(Nc1ccc(F)c(-n2cc3cc(N4CCC4)cnc3n2)c1)N1CC(F)(F)C1 [Compound 144, N-{3-[5-(azetidin-1-yl)-2H-pyrazolo[3,4-b]pyridin-2-yl]-4-fluorophenyl}-3,3-difluoroazetidine-1-carboxamide]	7.64	7.64	7.77	> 7.64		
[2H]C([2H])([2H])N(c1cnc2nn(-c3cc(NC(=O)N4CC(F)(F)C4)ccc3F)cc2c1)C([2H])([2H])[2H] [Compound 307, N-(3-{5-[bis(^2H3)methylamino]-2H-pyrazolo[3,4-b]pyridin-2-yl}-4-fluorophenyl)-3,3-difluoroazetidine-1-carboxamide]	7.92	6.55	7.80	8.30		
O=C(Nc1cccc(-n2cc3cc(-c4ccccn4)cnc3n2)c1)N1CCC1 [Compound 344, N-{3-[5-(pyridin-2-yl)-2H-pyrazolo[3,4-b]pyridin-2-yl]phenyl}azetidine-1-carboxamide]	8.30	8.70	8.52	9.00		
CC(C)CCc1cnc2nn(-c3cc(NC(=O)N4CC(F)(F)C4)ccc3F)cc2c1 [Compound 38, 3,3-difluoro-N-{4-fluoro-3-[5-(3-methylbutyl)-2H-pyrazolo[3,4-b]pyridin-2-yl]phenyl}azetidine-1-carboxamide]	7.48	7.51	7.21	7.62		
CC(=O)N1CCC1c1cnc2nn(-c3cc(NC(=O)N4CC(F)C4)ccc3F)cc2c1 (stereo not drawn) [Compound 267, N-(3-(5-(1-acetylazetidin-2-yl)-2H-pyrazolo[3,4-b]pyridin-2-yl)-4-fluorophenyl)-3-fluoroazetidine-1-carboxamide]	4.86	5.77	5.03	7.09		
O=C(Nc1ccc(F)c(-n2cc3cc(N4CC(F)(F)C4)cnc3n2)c1)[C@H]1C[C@@H]1F (single isomer, unassigned) [Compound 339]	6.51	5.80	6.95	6.79		
O=C(Nc1ccc(F)c(-n2cc3cc(N4CC(F)(F)C4)cnc3n2)c1)N1CC(F)(F)C1 [Compound 299, N-{3-[5-(3,3-difluoroazetidin-1-yl)-2H-pyrazolo[3,4-b]pyridin-2-yl]-4-fluorophenyl}-3,3-difluoroazetidine-1-carboxamide]	8.15	7.54	7.85	8.30		
CC(C)CCc1cnc2nn(-c3cc(NC(=O)N4CC[C@@H](F)C4)ccc3F)cc2c1 [Compound 52, (3R)-3-fluoro-N-{4-fluoro-3-[5-(3-methylbutyl)-2H-pyrazolo[3,4-b]pyridin-2-yl]phenyl}pyrrolidine-1-carboxamide]	7.96	7.72	7.89	> 7.64		
Cc1nc(C(=O)Nc2ccc(F)c(-n3cc4cc(C(C)C)cnc4n3)c2)co1 [Compound 85, N-{4-fluoro-3-[5-(propan-2-yl)-2H-pyrazolo[3,4-b]pyridin-2-yl]phenyl}-2-methyl-1,3-oxazole-4-carboxamide]	6.12	5.92	6.82	6.74		
CN(C)c1cnc2nn(-c3cc(NC(=O)N4CC(F)C4)ccc3F)cc2c1 [Compound 167, N-{3-[5-(dimethylamino)-2H-pyrazolo[3,4-b]pyridin-2-yl]-4-fluorophenyl}-3-fluoroazetidine-1-carboxamide]	8.09	8.54	8.66	> 7.64		
CNc1cnc2nn(-c3cc(NC(=O)c4ccco4)ccc3F)cc2c1 [Compound 139, N-{4-fluoro-3-[5-(methylamino)-2H-pyrazolo[3,4-b]pyridin-2-yl]phenyl}furan-2-carboxamide]	6.49	6.13	5.52	> 7.64		
O=C(Nc1ccc(F)c(-n2cc3cc(-c4ccccn4)cnc3n2)c1)N1CCCC1 [Compound 336, N-{4-fluoro-3-[5-(pyridin-2-yl)-2H-pyrazolo[3,4-b]pyridin-2-yl]phenyl}pyrrolidine-1-carboxamide]	8.40	8.70	9.00	9.00		
O=C(Nc1ccc(F)c(-n2cc3cc(NC4CC4)cnc3n2)c1)N1CC(F)C1 [Compound 249, N-{3-[5-(cyclopropylamino)-2H-pyrazolo[3,4-b]pyridin-2-yl]-4-fluorophenyl}-3-fluoroazetidine-1-carboxamide]	6.90	6.06	6.96	8.30		
CC(C)Cc1cnc2nn(-c3cc(NC(=O)N4CC(F)(F)C4)ccc3F)cc2c1 [Compound 8, 3,3-difluoro-N-(4-fluoro-3-(5-isobutyl-2H-pyrazolo[3,4-b]pyridin-2-yl)phenyl)azetidine-1-carboxamide]	8.48	8.11	8.35	> 7.64		
O=C(Nc1ccc(F)c(-n2cc3cc(Br)cnc3n2)c1)N1CC2(CC2)C1 [Compound 254, N-(3-(5-bromo-2H-pyrazolo[3,4-b]pyridin-2-yl)-4-fluorophenyl)-5-azaspiro[2.3]hexane-5-carboxamide]	6.17	7.04	7.30	6.59		
N#CC1(C(=O)Nc2ccc(F)c(-n3cc4cc(-c5ccccn5)cnc4n3)c2)CC1 [Compound 348, 1-cyano-N-{4-fluoro-3-[5-(pyridin-2-yl)-2H-pyrazolo[3,4-b]pyridin-2-yl]phenyl}cyclopropane-1-carboxamide]	6.02	6.46	6.85	6.95		
O=C(Nc1ccc(F)c(-n2cc3cccnc3n2)c1)N1CC(F)C1 [Compound 311, 3-fluoro-N-(4-fluoro-3-(2H-pyrazolo[3,4-b]pyridin-2-yl)phenyl)azetidine-1-carboxamide]	7.48	7.24	7.51	7.57		
O=C(Nc1ccc(F)c(-n2cc3cc(C4CCN(Cc5ccc(F)cc5)CC4)cnc3n2)c1)N1CC(F)C1 [Compound 305, 3-fluoro-N-[4-fluoro-3-(5-{1-[(4-fluorophenyl)methyl]piperidin-4-yl]-2H-pyrazolo[3,4-b]pyridin-2-yl)phenyl]azetidine-1-carboxamide]	8.52	6.96	9.00	8.30		
CC(C)Cc1cnc2nn(-c3cc(NC(=O)N4CC(F)C4)ccc3F)cc2c1 [Compound 14, 3-fluoro-N-{4-fluoro-3-[5-(2-methylpropyl)-2H-pyrazolo[3,4-b]pyridin-2-yl]phenyl}azetidine-1-carboxamide]	8.01	7.92	8.70	> 7.64		
